One data set deals with CEM. As to the kind of experiment: MTS cell growth and viability assay, CEM. It counts as cell-based. The note with it: 3 replicates. On the procedure:
(§1) Leukemia (U937, MDAY, CEM, CEM-VBL) and solid tumor cell lines (PPC-1, HeLa) were cultured in RPMI 1640 medium. The epidermoid carcinoma cell lines KB-3-1 and KB-4.0-HTI^23 were grown in Dulbecco's Modified Eagle Medium. The lung carcinoma cell lines A549 and A549.EpoB40 were grown in RPMI with the latter supplemented with 20% fetal calf serum (FCS), and 40 nM epothilone B.^24 Leukemia cell lines OCI-AML2, CEM, and NB4 and all the myeloma cell lines (OPM2, KMS11, JJN3 LP1, H929, L1, KMS12, KSM18 and OCI My5) were maintained in Iscove's Modified Dulbecco's Medium (IMDM). TEX cells were maintained in IMDM, 15% FCS, 1% penicillin-streptomycin, 2 mM L-glutamine, 20 ng/mL SCF, 2 ng/mL IL-3. Unless otherwise noted, all media were supplemented with 10% FCS, 100 units/mL of streptomycin and 100 μg/mL of penicillin (all from Hyclone, Logan, Utah). Cells were incubated in a humidified air atmosphere containing 5% CO2 at 37° C.
(§2) Cell growth and viability was measured using the 3-(4,5-dimethylthiazol-2-yl)-5-(3-carboxymethoxyphenyl)-2-(4-sulfophenyl)-2H-tetrazolium inner salt (MTS) reduction assay (Promega, Madison, Wis.) according to the manufacture's protocol and as previously described^25. Cells were seeded in 96 well plates and treated with drug for 72 h. Optical density (OD) was measured at 490 nm.

The test system of data set [1] is OCI-AML2 cells. The note with it: after 16 days of treatment; flubendazole 15 mg/kg, vinblastine 0.3 mg/kg. On the procedure:
Sub-lethally irradiated SCID mice were injected subcutaneously with OCI-AML2 cells (n=20; 10 per group). After implantation, mice were treated with 50 mg/kg flubendazole (A), 20 mg/kg flubendazole (B), or vehicle control by intraperitoneal injection daily. Tumor volume was measured over time. After 16 days (20 mg/kg dose) or 18 days (50 mg/kg dose), mice were sacrificed and tumors were excised, measured and weighted.
Sub-lethally irradiated SCID mice were injected subcutaneously with OCI-AML2 cells (n=40; 10 per group). […] After 16 (C) or 18 (D) days, mice were sacrificed and tumors were excised, measured and weighted. Data represent the mean±SD tumor weight.
Sub-lethally irradiated SCID mice were injected subcutaneously in the left flank with leukemia OCI-AML2 (2.0×10^6) or myeloma OPM2 (1.0×10^7) cells. Mice were then randomly assigned to receive flubendazole (in 0.9% NaCl and 0.01% tween-80) or vehicle control (0.9% NaCl and 0.01% tween-80) intraperitoneally. […] Tumor volumes (tumor length×width^2×0.5236) were monitored daily using calipers. At the end of the experiment (16-18 days), mice were sacrificed, tumors excised and tumor volume and weight measured. All animal studies were carried out according to the regulations of the Canadian Council on Animal Care and with the approval of the local ethics review board.

Another data set relates to CEM-VBL. Description: MTS assay, CEM-VBL (Pgp over-expressing). The data set is classed as cell-based. On the procedure:
Over-expression of P-glycoprotein (Pgp, MDR1) renders cells resistant to vinca alkaloid microtubule inhibitors.^43 Therefore, the effects of Pgp over-expression on flubendazole's cytotoxicity were tested. CEM-VBL cells over-express Pgp,^44 which was confirmed with a rhodamine dye exclusion assay. CEM wild type and CEM-VBL cells were treated with increasing concentrations of flubendazole or vinblastine and cell viability measured by the MTS assay (Table 1). […] In contrast, CEM-VBL cells over-expressing Pgp were resistant to vinblastine at concentrations greater than 5.0 μM (Table 1).
as §1, §2
(In general: Tetrazolium assays rely on reduction of a dye to a coloured formazan, in cell work by metabolically active cells.)

Data set [2] relates to bovine tubulin. Description: Measurement of tubulin sulfhydryl groups (DTNB). The note with it: flubendazole 100 μM, vinblastine 10 μM. The data set is classed as biochemical. On the procedure:
(§3) A representative figure is shown.
The ability of microtubule target drugs to alter tubulin structure was assessed by measuring the number of reactive cysteine residues using the sulfhydryl reagent 5,5′-Dithio-bis(2-nitrobenzoic acid) (DTNB; Sigma) as previously described^19,29. […] After incubation, DTNB was added (100 μM final concentration) and the absorbance was measured in a 1 cm path length cuvette at 412 nm for 60 min at 37° C. The number of sulfhydryl groups were determined by using a molar extinction coefficient for DTNB of 13 600 (M^−1, cm^−1).^29

Data set [3] relates to bovine tubulin. As to the kind of experiment: Site of binding to tubulin (colchicine-tubulin fluorescence). As to conditions: tubulin 5.0 μM, 100 μM drug 30 min, then colchicine 10 μM 60 min. On the procedure:
(C) Tubulin (5.0 μM) was incubated for 30 min with 100 μM vinblastine, 100 μM flubendazole, or buffer control. […] A representative figure is shown.
The site of flubendazole binding was determined similar to Gupta et al^19. Bovine tubulin (5.0 μM) was incubated with 100 μM flubendazole, 100 μM vinblastine or buffer control for 30 min at 37° C.

Data set [4] has as its system OCI-AML2 cells. Description: MTS cell growth and viability assay, OCI-AML2. It counts as cell-based. The note with it: OCI-AML2 cells, FIG. 1A.
Experimental: (A) OCI-AML2 cells were treated for 72 h with increasing concentrations of benzimidazoles. After incubation, cell growth and viability was measured by the MTS assay. Data represent the mean percentage of viable cells ±SD from a representative experiment.
The test system of data set [5] is bovine tubulin. As to the kind of experiment: Tubulin polymerization assay. As to conditions: cell-free, bovine tubulin 1.8 mg/ml; flubendazole 100 μM. It counts as biochemical. On the procedure: as §3
Polymerization of bovine tubulin was measured according to Beyer et al^28. Briefly, bovine tubulin (1.8 mg/ml; Cytoskeleton; Denver, USA) was added to ice cold polymerization buffer (PEM; 80 mM PIPES, 0.5 mM EGTA, 2 mM MgCl2, 10% glycerol and 1 mM GTP) and centrifuged at top speed in a microcentrifuge for 5 min at 4° C. […] Following addition of tubulin, the plate was immediately placed in the spectrophotometer, which was maintained at 37° C., and the absorbance measured every 3 minutes for 2.5 h at 340 nm.

A further data set deals with leukemia cell lines. As to the kind of experiment: Screen of library of 110 drugs for cytotoxicity. The data set is classed as cell-based.
In a further data set the test system is advanced solid tumors. As to conditions: Phase I, cited from earlier work.

Where only a bound is given, the exact number is not on record here.

Experimental for leukemia cell lines: OCI-AML2 leukemia cells were treated with increasing concentrations of 8 benzimidazoles. Seventy two hours after incubation, cell growth and viability was measured by the MTS assay.

By IC50 is commonly meant the midpoint of a concentration-inhibition curve. Lower therefore signals greater potency. Turning to vinblastine, the IC50 in the data set with CEM was 140 ± 10 nM; with CEM-VBL (CEM-VBL, 3 replicates) it was more than 5000 nM. In the data set on OCI-AML2 cells [1], the mouse body weight result is given as “does not affect mouse body weight”. Besides, the “sensitivity of CEM-VBL cells compared to wild type controls” value in the data set with CEM-VBL (Pgp over-expression) is on record as “resistant”. For the same molecule, the “reduction in number of reactive cysteines compared to buffer control” value in the data set on bovine tubulin [2] was 8.6±2.5. The “colchicine fluorescence (colchicine binding to tubulin)” value in the data set with bovine tubulin [3] is given as “had no effect”.

`c1ccc2[nH]cnc2c1` [1,3-benzidiazole]: the “induction of cell death” value in the data set with OCI-AML2 cells [4] was “did not induce cell death”. In the data set with bovine tubulin [5], the “effect on tubulin polymerization / microtubule formation” value is recorded as “did not inhibit microtubule formation”.

For the molecule `COC(=O)Nc1nc2ccc(C(=O)c3ccccc3)cc2[nH]1` [mebendazole], the “cytotoxicity in library screen” value with leukemia cell lines is on record as “cytotoxic”.

Take `c1ccc2[nH]c(-c3cscn3)nc2c1` [thiabendazole]: the “induction of cell death” value in the data set with OCI-AML2 cells [4] was “did not induce cell death”. For the same molecule, in the data set with bovine tubulin [5], the “effect on tubulin polymerization / microtubule formation” value was “did not inhibit microtubule formation”.

As to `CCCSc1ccc2nc(NC(=O)OC)[nH]c2c1` [albendazole], the “patients with severe neutropenia” value in the data set with advanced solid tumors (7 patients) is 3 patients. For the same molecule, in the data set on advanced solid tumors (advanced solid tumors), the “patients with reduced levels of the tumor markers AFP and CEA” value is 2 of 7.

These data come from US20120202840A1, “Use of Flubendazole and Vinca Alkaloids for Treatment of Hematological Diseases” (priority 2009, published 2012).
